In data set [1] the test system is activated caspase-3 in hippocampus. Kind of data set: Hippocampal activated caspase-3 immunohistochemistry after anesthetic gas exposure. As for the experimental part:
(§1) 7 day old Sprague-Dawley rat pups were placed in individual wells of a custom-built anesthetic chamber, and randomised to groups A-F to receive one of 6 gas combinations for 6 hours. Previous work has established that NMDA receptor antagonists have their maximal neurodegenerative affect 7 days after birth (Ikonomidou et al., 1999).
(§2) Group B received 75% nitrous oxide and 25% oxygen as delivered by a calibrated anesthetic machine, whereas group C received 75% xenon along with 25% oxygen through a customised anesthetic machine modified for xenon delivery (Ohmeda, modified by Air Products, Surrey, UK). Group D were exposed to 25% oxygen along with 0.75% isoflurane. The remaining 2 groups were exposed to combinations of gases—namely 25% oxygen+75% nitrous oxide+0.75% isoflurane (group E) and 25% oxygen+60% xenon+15% nitrogen+0.75% isoflurane (group F). The high cost of xenon precludes its use in an open-circuit, consequently group C and group F received gases using a closed-circuit system, whereas gases for all other groups were delivered in a high-flow open-circuit.
(§3) Rats destined for immunohistochemistry were sacrificed with 100 mg kg^−1 sodium pentobarbital IP immediately post-anesthesia, whereas those rats for DeOlmos silver staining were allowed to recover for 18 hrs before undergoing the same procedure. A thoracotomy was performed, and the aorta cannulated via a needle inserted into the apex of the heart. The pup was then perfused with 10 ml of 1% heparin solution, with the excess solution leaving through an incision in the right atrium. To fix the tissues, 20 ml of 4% paraformaldehyde in 0.1M phosphate buffer was injected by the same transcardial route. The whole brain was then removed and allowed to fix in paraformaldehyde perfusate and refrigerated at 4° C. 24 hours later, the brains were transferred to a solution of 30% sucrose with phosphate buffer and 1% sodium azide, and were kept refrigerated until the brains sank (approximately 48 hours).
(§4) Once processed, a block was cut to safely include the area of interest—a coronal section −3.6 mm from the bregma (FIG. 1B). The blocks were then embedded and frozen into O.C.T. solution. The block was then cut coronally into approximately 120 slices, each 30 μm thick, with a cryostat (Bright Instrument Company Ltd., Huntingdon, UK). The cut sections were transferred to a 6 well plate containing phosphate buffered saline (PBS).
A random well from each cut block, each containing around 20 representative slices of the total block, was transferred to a marked silk-bottomed well using a 3 ml Pasteur pipette. The sections were then washed in 5 ml of PBS for 5 min on a shaker set at 75 rpm. This washing procedure was repeated twice more, replacing the PBS each time. […]

The test system of the next data set is pure neuronal cultures. Kind of data set: FACS assessment of necrotic, viable and apoptotic cell populations after preconditioning and oxygen glucose deprivation.
The test system of data set [2] is neuronal glial co-culture. Put plainly: LDH release after preconditioning and oxygen glucose deprivation, neuronal glial co-culture. Type of data set: cell-based, mouse. The settings on record: for LDH release following oxygen glucose deprivation: 2 h preconditioning. As for the experimental part: The pups were anaesthetised with isoflurane and then decapitated with the heads placed immediately into 4° C. HSG solution, an isotonic, high sucrose glucose solution made primarily from Hank's balanced salt solution (HBSS, GibroBRL) enhanced with NaHCO3 (0.04 M), sucrose (0.2 M) and D-Glucose (0.3 M) also containing antibiotic-anti-mycotic solution (AAS, GibroBRL). […] HSG solution.
The brain tissue was then immersed in 0.25% trypsin and was placed in a shaking air chamber for 50 minutes at 37° C. filled with 5% CO2 and 95% room air. DNase was then added to the mixture and placed back into the shaking air chamber for a further 15 minutes. The mixture was then centrifuged at 1600 rpm for 10 minutes at 4° C. and the supernatant was carefully discarded. The cells were then resuspended and then plated at a density of 6.25×10^4 cells/cm^2 on 24-multiwell plates (Costar, Cambridge, Mass.) and cultured in a medium consisting of Eagle's minimum essential medium augmented with 20 mM glucose, 26 mM NaHCO3, 10% foetal bovine serum, 10% heat-inactivated horse serum, AAS (Gibco, Paisley, UK), 2 mM glutamine (Sigma, Poole, UK) and 10 ng/ml murine epidermal growth factor (EGF) (GibcoBRL). Glial cells reached confluence about one week after plating.
Using a similar procedure cortical neuronal cells were obtained from fetal BALB/c mice at 14-16 days of gestation and plated at a density of 1.25×10^5 cells per cm^2 on the confluent monolayer of glial cells derived from the corresponding genetic strain. Neuronal cells reached confluence 10 days after plating.
Sevoflurane was delivered using a vaporiser (Datex-Ohmeda).
The amount of neuronal damage was assessed by the amount of LDH released into the culture medium, using a standardised colorimetric enzyme kit (Sigma, Poole, UK). This technique has been previously described (Wilhelm et al 2002). LDH assessment was performed 16 hours after oxygen glucose deprivation (FIG. 8).

The subject of data set [3] is activated caspase-3 in cortex. Kind of data set: Cortical activated caspase-3 immunohistochemistry after anesthetic gas exposure. On the procedure:
as §1, §2, §3, §4
A random well from each cut block, each containing around 20 representative slices of the total block, was transferred to a marked silk-bottomed well using a 3 ml Pasteur pipette. The sections were then washed in 5 ml of PBS for 5 min on a shaker set at 75 rpm. This washing procedure was repeated twice more, replacing the PBS each time. To quench the sections, they were incubated at room temperature on a shaker for 30 min in a solution comprising 35 ml methanol, 15 ml of PBS and 500 μl of stock 30% H2O2.
The quenching solution was then removed, and the sections washed three times in PBS. Sections were blocked for 60 min at room temperature with 50 ml of PBST (PBS containing 0.5% Triton-X (Promega Corporation, Madison, Wis.)), and 1500 μl of normal goat serum (NGS) (Vector Laboratories Inc., Burlingame, Calif.). For incubation with the primary antibody, the sections were kept overnight at 4° C. on a shaker set at 50 rpm in a solution made up of […] rabbit anti-cleaved caspase-3 antibody (New England Biolabs, Hertfordshire, UK), 50 ml of PBST and 500 μl of NGS. […]

For data set [4] the following is noted: in vivo; cited from earlier work.
The mark [5] stands for this setting: 12.5% xenon, 0.67% sevoflurane or their combination as preconditioning, then oxygen glucose deprivation.
Setting [6] is: 7 day old Sprague-Dawley rats, 6 h exposure with 25% oxygen, 75% N2O, 75% xenon, 0.75% isoflurane, 75% N2O+0.75% isoflurane, 60% xenon+0.75% isoflurane, air control 19.3±6.4.
[7] abbreviates: Sprague-Dawley, rat, in vivo, 6 h.

Like-named read-outs stand apart in the source and are kept apart here.

Data on four compounds can be found in US9326996B2, “Use of xenon as neuroprotectant in a neonatal subject” (IMPERIAL INNOVATIONS LIMITED, priority 2004, dated 2016).

Protocol for pure neuronal cultures: Neuronal cells were harvested from 19 day old embryonic mice by cesarean section for pregnant BALB/c mice. 6-9 mouse brains were removed from fetal mice and dissected to isolate whole cerebral neocortices devoid of the hippocampus, basal ganglia and meninges. Again throughout the micro dissection process, brain tissues were kept in 4° C. HSG solution. […] The cells were plated at a density of 1.2×10^5 cells, per cm^2 on 24-multiwell plates (Cater, Cambridge, Mass.) and the cultures were maintained at 37° C. in a humidified 5% CO2 environment. Neurobasal Media supplemented with B27, glutamine and AAS was used to resuspend the neuronal cells and as culture medium. For every 10 ml of Neurobasal Media, the following supplements were added: 200 μl B27, 100 μl antibiotic and 25 μl glutamine. Medium replacement for these cells was performed on day 2, 5 and 7 with pre-warmed 37° C. culture medium (Neurobasal Media, B27, Glutamine and AAS). On day 5 after neuronal plating, 100 μl/10 ml cytosine arabinoside (CA hydrochloride, Sigma) was added to the cell cultures to halt non-neuronal cell division. Neuronal cell cultures were ready to use on day 7.
Cells were preconditioned using a purpose built 1.4 liter airtight, temperature controlled gas chambers. The chambers had inlet and outlet valves and an internal electric fan to ensure effective and continuous delivery of gases. Gas flow rate was 100 ml/min, and so chambers were flushed and allowed to equilibrate for 45 minutes before establishing a closed system. Cells were preconditioned for 2 hours inside the closed system with the appropriate gas concentrations using flow meters. Sevoflurane was delivered using a vaporiser (Datex-Ohmeda).
To model ischaemic damage in the brain, neuronal cells were subjected to oxygen glucose deprivation. Twenty four hours after preconditioning cells, cultures were washed twice with HEPES buffer solution (120 mM NaCl, 5.4 mM KCL, 0.8 mM MgCl2, 15 mM glucose and 20 mM HEPES, titrated to pH 7.4 using 1M NaOH). […] The cells were exposed to this anoxic environment for 75 minutes. Oxygen glucose deprivation was terminated by removing the cultures from the gas chamber and changing the media; cultures destined for lactate dehydrogenase (LDH) assay were washed once and replaced with Eagle's minimal essential medium enhanced with 25 mM glucose and 38 mM NaHCO3, whereas pure neuronal cultures for FACS were washed once and replaced with Neurobasal Media supplemented with B27, glutamine and AAS.
Twenty fours hours after oxygen glucose deprivation, cells were stained for FACS analysis. The culture medium was removed and washed twice with HEPES buffer solution. […] Cells were then washed twice with 1×BB, and then 0.8 μg/ml propidium iodide (Sigma-Aldrich, Poole, UK) in 1% fetal bovine serum (FBS) in phosphate buffer solution (PBS) was added and left to incubate on ice for 5 minutes. […] 800 μl 1% FBS in PBS was then added to stop the reaction, cells were removed and added to tubes for centrifugation at 1200 g for 10 minutes. The supernatant was discarded and the cells were re-suspended with 300 μl 1% FBS in PBS. Steps, if possible, were performed on ice to reduce the amount of neuronal death.
A FACSCalibur (Becton Dickinson, Sunnyvale, Calif.) with a single argon laser was used for flow cytometric analysis. […] At least 10,000 cells per sample were analysed.

Consider `[Xe]` [xenon], for which the “number of caspase-3 positive cells in hippocampus (mean±SD)” value (“number … in hippocampus (mean±SD)” for short) in data set [1] (7 day old Sprague-Dawley rats, 6 h exposure with 25% oxygen, 75% N2O, 75% xenon, 0.75% isoflurane, 75% N2O+0.75% isoflurane, 60% xenon+0.75% isoflurane, controls 5.2±1.8) stood at 5.0±3.2. Further, in the data set on pure neuronal cultures, the necrotic cell population is on record as 75+/−2%. Further, the apoptotic cell population with pure neuronal cultures (setting [5]) is 9+/−1%. Moreover, the viable cell population with pure neuronal cultures (setting [5]) was determined as 9%. The “LDH release following oxygen glucose deprivation” value was 83+/−7 % of controls in data set [2] (xenon at 12.5%, not significant); 70+/−11 % of controls in data set [2] (xenon at 25%, not significant); 55+/−12 % of control values in data set [2] (xenon at 50%, p<0.05); 49+/−12 % of control values in data set [2] (xenon at 75%, p<0.05). Also, in data set [3] (setting [6]), the “number of caspase-3 positive cells in cortex (mean±SD)” value (from here on “number … in cortex (mean±SD)”) was determined as 19.7±9.6. The “atmosphere sufficient to induce or maintain anesthesia” value in data set [4] was “about 70%”.

Regarding `FC(F)OC(Cl)C(F)(F)F` (centres unmarked) [isoflurane], in data set [1] (setting [7]), the “increase in the level of apoptosis in the hippocampus vs controls” value was 4 fold and the “number … in hippocampus (mean±SD)” value is reported as 22.1±9.6. Further, in data set [3] (0.75% isoflurane or 75% N2O+0.75% isoflurane, neonatal rats), the “increase in the level of apoptosis in the cortex vs controls” value is 4 fold. Besides, the “number … in cortex (mean±SD)” value in data set [3] (setting [6]) turned out to be 76.5±11.4.

Turning to `FCOC(C(F)(F)F)C(F)(F)F` [sevoflurane], the apoptotic cell population in the data set with pure neuronal cultures (setting [5]) is 17+/−1%. Besides, in the data set with pure neuronal cultures (setting [5]), the viable cell population stood at 9%. Moreover, the necrotic cell population in the data set with pure neuronal cultures (12.5% xenon, 0.67% sevoflurane or their combination as preconditioning, then oxygen glucose deprivation, sham 70+/−2%, control 17+/−1%) was 81+/−2%. Also, in data set [2] (2 h preconditioning followed by OGD), the “concentration producing a significant reduction in LDH release” value is “greater than 1.9%”. Besides, the “LDH release following oxygen glucose deprivation” value is listed as 97+/−5 % of controls in data set [2] (sevoflurane at 0.67%, ineffective); 100+/−11 % of controls in data set [2] (sevoflurane at 1.3%); 64+/−6 % of control in data set [2] (sevoflurane at 2.7%, p<0.05); 37+/−5 % of controls in data set [2] (sevoflurane at 3.3%, p<0.001). Further, the “degenerating neurons, positive cells” value in data set [3] (1.5% sevoflurane alone, control value 20.0±2, brain region not stated) is 42±2 positive cells. The “atmosphere sufficient to maintain anesthesia” value in data set [4] is reported as “about 2.5%”.

As to `[N-]=[N+]=O` [N2O, nitrous oxide], the “number … in hippocampus (mean±SD)” value in data set [1] (setting [7]) is reported as 3.7±1.4. Further, the “number … in cortex (mean±SD)” value in data set [3] (setting [7]) came to 22.5±5.9.
